Reference: patent publication US12234236B1, “GLP-1R agonist and therapeutic method thereof” (Ascletis Pharma (China) Co., Limited, priority 2023, dated 2025)

Experiments:
[1] = Single-dose subcutaneous injection pharmacokinetic study in SD rats; type: in vivo; conditions: Sprague-Dawley, rat, blood, sc, male SD rats, 30 mg/kg, vehicle 80% MCT + 20% benzyl alcohol, read-out: AUC0-696h
Protocol: Pharmacokinetic Studies in Sprague-Dawley (SD) Rats
1. Single-Dose Subcutaneous Injection Pharmacokinetic Studies Sprague-Dawley (SD) Rats
Pharmacokinetic (PK) studies after a single-dose subcutaneous injection for compounds: 1, 13, 18, 19, 20, 21 and orforglipron. Protocol: Animals: Male Sprague-Dawley (SD) rats; Vehicle: 80% MCT (Medium-Chain Triglycerides)+20% benzyl alcohol; Dose: 30 mg/kg in the vehicle; Dosing concentration: 30 mg/mL; Dosing volume: 1 mL/kg; Administration site: Subcutaneous injection at the back of the animal. Blood sampling time points: pre-dose, 1 h, 2 h, 8 h, 24 h, 48 h, 72 h, 96 h, 120 h, 144 h, 216 h, 312 h, 480 h, 696 h. Blood samples were collected, and the blood samples were analyzed by LC-MS/MS.

[2] = Single-dose oral administration pharmacokinetic study in SD rats; type: in vivo; conditions: Sprague-Dawley, rat, whole blood, 5 mg/kg; for AUC(0-t): read-out: AUC0-48h
Protocol: 2. Single-Dose Oral Administration Pharmacokinetic (PK) Studies in Sprague-Dawley (SD) Rats
Pharmacokinetic (PK) studies after a single-dose oral administration for compounds. Protocol: Animals: Sprague-Dawley (SD) rats; Solvent: Solutol: PEG400: Tween80: Saline=10:40:2:48 (v/v/v/v); Dose: 5 mg/kg; Dosing concentration: 0.5 mg/mL in the solvent; Dosing volume: 10 mL/kg; Blood sampling time points: pre-dose, 0.25 h, 0.5 h, 1 h, 2 h, 3 h, 4 h, 8 h, 12 h, 18, 24 h, 32 h, 40 h, 48 h. Sample Collection: At each time point, approximately 0.15 mL of blood was drawn from the jugular vein sinus, and the collected whole blood was placed in an anticoagulant tube containing EDTA-K2. After collecting blood samples, they were processed with protein precipitation and then analyzed by LC-MS/MS.

hGLP-1R = target: T1, hGLP-1R (Homo sapiens, UniProt P43220); assay: hGLP-1R agonist cAMP stimulation assay; type: cell-based; conditions: Flp-In-293-GLP1R cells, 30 minutes at 37° C.
T1 construct: expressed in transfected cells; host or cells: Flp-In-293 (HEK293-derived) cells carrying GLP1R
Protocol: 1. Cell Line and Reagent Preparation
• 1) Cell line: Flp-In-293-GLP1R • 2) Medium: DMEM+10% FBS+1×Penicillin-Streptomycin+200 μg/mL HB • 3) Test buffer: 1×HBSS+20 mM HEPES+0.1% BSA+500 μM IBMX 2. Agonist Test • a) Flpin-293-GLP1R cells were incubated in a 384-well assay plate (6007680-50, PB) using a complete medium with 2,000 cells per well. • b) Prepared a 4× […] working solution with assay buffer. • c) Added 5 μL of 4× Compound Working Solution to the cell plate and incubated at 37° C. for 30 minutes. • d) Diluted the Eu-cAMP tracer (1/50) with lysis buffer and added 10 μl/well to the assay plate. • e) Diluted Ulight-anti-cAMP (1/150) with lysis buffer and added 10 μl/well to the assay plate. • f) The assay plate was incubated at constant temperature for 1 hour. • g) Read the plate on Envision 2105 plate reader at […]. 3.

T1 sequence (P43220 24-463): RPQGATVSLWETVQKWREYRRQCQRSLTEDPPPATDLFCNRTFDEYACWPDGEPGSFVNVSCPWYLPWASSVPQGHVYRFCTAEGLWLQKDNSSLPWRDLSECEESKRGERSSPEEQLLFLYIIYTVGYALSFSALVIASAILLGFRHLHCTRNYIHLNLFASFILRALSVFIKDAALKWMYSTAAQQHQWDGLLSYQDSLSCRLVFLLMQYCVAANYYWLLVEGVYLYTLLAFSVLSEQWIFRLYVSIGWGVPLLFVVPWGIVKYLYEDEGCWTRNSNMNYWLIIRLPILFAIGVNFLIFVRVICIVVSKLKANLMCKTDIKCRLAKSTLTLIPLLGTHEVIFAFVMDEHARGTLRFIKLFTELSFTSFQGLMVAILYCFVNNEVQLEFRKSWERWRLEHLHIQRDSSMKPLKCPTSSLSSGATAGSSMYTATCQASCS

| AUC(0-t) [1] | Cmax [2] | AUC(0-t) [2] | EC50 (hGLP-1R) | Compound |
| --- | --- | --- | --- | --- |
| 234000 ng·h/mL | 4460 ng/mL | 60000 ng·h/mL | 12 pM | Cc1cc(-n2nc3c(c2-n2ccn(-c4ccc5c(cnn5C5CC5)c4F)c2=O)[C@H](C)N(C(=O)c2cc4nc(C5CCOCC5)ccc4n2[C@@]2(c4noc(=O)[nH]4)C[C@@H]2C)CC3)cc(C)c1F (single isomer, unassigned) [Compound 19] |
| 60300 ng·h/mL |  |  | 94 pM | Cc1cc(-n2nc3c(c2-n2ccn(-c4ccc5c(cnn5C5CC5)c4F)c2=O)[C@H](C)N(C(=O)c2cc4cc([C@H]5CCOC(C)(C)C5)ccc4n2[C@@]2(c4noc(=O)[nH]4)C[C@@H]2C)CC3)cc(C)c1F [Compound 1] |
| 23400 ng·h/mL |  |  | 228 pM | Cc1cc(-n2nc3c(c2-n2ccn(-c4ccc5c(cnn5CC5CC5)c4F)c2=O)[C@H](C)N(C(=O)c2cc4cc(C5CCOC(C)(C)C5)ccc4n2[C@@]2(c4noc(=O)[nH]4)C[C@@H]2C)CC3)cc(C)c1F (stereo partly drawn) [Compound 13] |
| 51200 ng·h/mL |  |  | 265 pM | Cc1cc(-n2nc3c(c2-n2ccn(-c4ccc5c(cnn5CC5CC5)c4F)c2=O)[C@H](C)N(C(=O)c2cc4cc([C@@H]5CCOC(C)(C)C5)ccc4n2[C@@]2(c4noc(=O)[nH]4)C[C@@H]2C)CC3)cc(C)c1F [Compound 18] |
| 77700 ng·h/mL | 1900 ng/mL | 17000 ng·h/mL | 18 pM | Cc1cc(-n2nc3c(c2-n2ccn(-c4ccc5c(cnn5C5CCC5)c4F)c2=O)[C@H](C)N(C(=O)c2cc4cc(C5CCOCC5)ccc4n2[C@@]2(c4noc(=O)[nH]4)C[C@@H]2C)CC3)cc(C)c1F [Compound 20] |
| 61500 ng·h/mL |  |  | 44 pM | Cc1cc(-n2nc3c(c2-n2ccn(-c4ccc5c(cnn5CC5CC5)c4F)c2=O)[C@H](C)N(C(=O)c2cc4cc(C5CCOCC5)ccc4n2[C@@]2(c4noc(=O)[nH]4)C[C@@H]2C)CC3)cc(C)c1F [Compound 21] |
|  |  |  | 868 pM | Cc1cc(-n2nc3c(c2-n2ccn(-c4ccc(NS(C)(=O)=O)cc4)c2=O)C2CCC(C3)N2C(=O)c2cc3nc(C4CCOCC4)ccc3n2[C@@]2(c3noc(=O)[nH]3)C[C@@H]2C)cc(C)c1F (stereo partly drawn) [Compound 24] |
|  |  |  | 63 pM | Cc1cc(-n2nc3c(c2-n2ccn(-c4ccc5c(c4F)COB5O)c2=O)[C@H](C)N(C(=O)c2cc4cc(C5CCOC(C)(C)C5)ccc4n2[C@@]2(c4noc(=O)[nH]4)C[C@@H]2C)CC3)cc(C)c1F (stereo partly drawn) [Compound 29] |
|  |  |  | 25 pM | Cc1cc(-n2nc3c(c2-n2ccn(-c4ccc5c(c4F)CCS(=O)(=O)N5C)c2=O)[C@H](C)N(C(=O)c2cc4cc(C5CCOCC5)ccc4n2[C@@]2(c4noc(=O)[nH]4)C[C@@H]2C)CC3)cc(C)c1F [Compound 35] |
|  |  |  | 50 pM | Cc1cc(-n2nc3c(c2-n2ccn(-c4ccc5c(c4F)CCS(=O)(=O)N5)c2=O)[C@H](C)N(C(=O)c2cc4cc(C5CCOCC5)ccc4n2[C@@]2(c4noc(=O)[nH]4)C[C@@H]2C)CC3)cc(C)c1F [Compound 36] |
|  |  |  | 60 pM | Cc1cc(-n2nc3c(c2-n2ccn(-c4ccc5c(c4F)CS(=O)(=O)N5)c2=O)[C@H](C)N(C(=O)c2cc4cc(C5CCOCC5)ccc4n2[C@@]2(c4noc(=O)[nH]4)C[C@@H]2C)CC3)cc(C)c1F [Compound 37] |
|  |  |  | 28 pM | Cc1cc(-n2nc3c(c2-n2ccn(-c4ccc(CP(C)(C)=O)cc4)c2=O)[C@H](C)N(C(=O)c2cc4cc(C5CCOCC5)ccc4n2[C@@]2(c4noc(=O)[nH]4)C[C@@H]2C)CC3)cc(C)c1F [Compound 50] |
|  |  |  | 150 pM | Cc1cc(-n2nc3c(c2-n2ccn(-c4ccc5c(c4)NCCS5(=O)=O)c2=O)[C@H](C)N(C(=O)c2cc4cc(C5CCOCC5)ccc4n2[C@@]2(c4noc(=O)[nH]4)C[C@@H]2C)CC3)cc(C)c1F [Compound 55] |
|  | 11000 ng/mL | 71800 ng·h/mL | 92 pM | Cc1cc(-n2nc3c(c2-n2ccn(-c4ccc5c(cnn5C5CC5)c4F)c2=O)[C@H](C)N(C(=O)c2cc4nc(C5CCOCC5)ccc4n2[C@@]2(c4noc(=O)[nH]4)C[C@@H]2C)CC3)cc(C)c1F [Compound 65] |
|  |  |  | 14 pM | Cc1cc(-n2nc3c(c2-n2ccn(-c4ccc5c(cnn5C5CC5)c4F)c2=O)[C@H](C)N(C(=O)c2cc4cc(C5CCOCC5)ncc4n2[C@@]2(c4noc(=O)[nH]4)C[C@@H]2C)CC3)cc(C)c1F [Compound 66] |
|  |  |  | 64 pM | Cc1cc(-n2nc3c(c2-n2ccn(-c4ccc5c(cnn5C5CC5)c4F)c2=O)[C@H](C)N(C(=O)c2cc4cc(C5CCOCC5)cnc4n2[C@@]2(c4noc(=O)[nH]4)C[C@@H]2C)CC3)cc(C)c1F [Compound 70] |
|  |  |  | 19 pM | Cc1cc(-n2nc3c(c2-n2ccn(-c4ccc5c(c4)CS(=O)(=O)N5C)c2=O)[C@H](C)N(C(=O)c2cc4cc(C5CCOCC5)ccc4n2[C@@]2(c4noc(=O)[nH]4)C[C@@H]2C)CC3)cc(C)c1F [Compound 76] |
|  |  |  | 22 pM | Cc1cc(-n2nc3c(c2-n2ccn(-c4ccc5c(c4)oc(=O)n5C)c2=O)[C@H](C)N(C(=O)c2cc4cc(C5CCOCC5)ccc4n2[C@@]2(c4noc(=O)[nH]4)C[C@@H]2C)CC3)cc(C)c1F [Compound 77] |
|  |  |  | 12 pM | Cc1cc(-n2nc3c(c2-n2ccn(-c4ccc5c(c4)CCC(=O)N5C)c2=O)[C@H](C)N(C(=O)c2cc4cc(C5CCOCC5)ccc4n2[C@@]2(c4noc(=O)[nH]4)C[C@@H]2C)CC3)cc(C)c1F [Compound 78] |
|  |  |  | 171 pM | Cc1cc(-n2nc3c(c2-n2ccn(-c4ccc5c(c4F)COB5O)c2=O)[C@H](C)N(C(=O)c2cc4cc(C5CCOCC5)ccc4n2[C@@]2(c4noc(=O)[nH]4)C[C@@H]2C)CC3)cc(C)c1F [Compound 79] |
|  |  |  | 38 pM | CCP(=O)(CC)Cc1ccc(-n2ccn(-c3c4c(nn3-c3cc(C)c(F)c(C)c3)CCN(C(=O)c3cc5cc(C6CCOCC6)ccc5n3[C@@]3(c5noc(=O)[nH]5)C[C@@H]3C)[C@H]4C)c2=O)cc1 [Compound 80] |
|  |  |  | 42 pM | Cc1cc(-n2nc3c(c2-n2ccn(-c4ccc(CP(=O)(C5CC5)C5CC5)cc4)c2=O)[C@H](C)N(C(=O)c2cc4cc(C5CCOCC5)ccc4n2[C@@]2(c4noc(=O)[nH]4)C[C@@H]2C)CC3)cc(C)c1F [Compound 81] |
|  |  |  | 11 pM | Cc1cc(-n2nc3c(c2-n2ccn(-c4ccc(CP5(=O)CCCC5)cc4)c2=O)[C@H](C)N(C(=O)c2cc4cc(C5CCOCC5)ccc4n2[C@@]2(c4noc(=O)[nH]4)C[C@@H]2C)CC3)cc(C)c1F [Compound 82] |
| 5390 ng·h/mL | 799 ng/mL | 7220 ng·h/mL |  | Cc1cc(-n2nc3c(c2-n2ccn(-c4ccc5c(cnn5C)c4F)c2=O)[C@H](C)N(C(=O)c2cc4cc([C@H]5CCOC(C)(C)C5)ccc4n2[C@@]2(c4noc(=O)[nH]4)C[C@@H]2C)CC3)cc(C)c1F [Orforglipron, orforglipron, reference compound] |

| Compound | AUC(0-t) [1] | Cmax [2] | AUC(0-t) [2] | EC50 (hGLP-1R) |
| --- | --- | --- | --- | --- |
| CCOP(=O)(Cc1ccc(-n2ccn(-c3c4c(nn3-c3cc(C)c(F)c(C)c3)CCN(C(=O)c3cc5cc(C6CCOCC6)ccc5n3[C@@]3(c5noc(=O)[nH]5)C[C@@H]3C)[C@H]4C)c2=O)cc1)OCC [Compound 84] |  |  |  | 80 pM |
